# Assay results taken from US12281335B2, “Methods and compositions for delivery of viral vectors across the blood-brain barrier” (priority 2017, dated 2025).
# Entries after “also recorded” stand apart in the source; their conditions may differ. Ends that are not written are not given here.
# How the values were obtained:
# [1] = tested on: C57BL/6 mice; test: In vivo luciferase imaging after retro-orbital injection of AAV8/luc with peptides; design: species or system mouse; conditions: 0.1 mM peptides + 5E+10 vg AAV8/luc, retro-orbital vein, 7th day
# Experimental: Animal study. […] Mice were administered with AAV8/Luc incubated with peptides via retro-orbital injection. Luciferase expression was imaged at the indicated time points using a Xenogen IVIS Lumina (Caliper Lifesciences, Waltham, MA) following intraperitoneal injection of D-luciferin substrate (Nanolight Pinetop, AZ). Bioluminescent images were analyzed using Living Image (PerkinElmer, Waltham, MA). At various time points after injection, blood was collected from the retro-orbital plexus, and the viral titers were tested by qPCR.
# [2] = tested on: HEK293 cells or Huh7 cells; test: In vitro transduction assay, AAV8/luc with peptides; assay type: cell-based, human; conditions: 10000 vg AAV8/luc incubated with peptides 2 h at 4° C.; both cell lines; 48 h; vs AAV8 only
# Experimental: In vitro transduction assay. At least 4-5 h prior to AAV transduction, cells were seeded in 48-well plates with a density of 1E+05 cells each well. Cells were infected with 1E+04 vector genomes (vg) of AAV8/luc virus per cell and harvested after 48 h. Luciferase activity was measured following manufacturer's instruction (Promega, Madison, WI).
# The complex of AAV8 and peptides influences AAV8 transduction in vitro and in vivo. To identify the potential and functional peptides that enhanced AAV8 transduction, we screened several reported peptides as shown in Table 5 and Table 6. First, we tested the cytotoxicity of peptides at different concentrations on cells. […] After that, we performed the transduction assay in vitro. We incubated the 10000 vg AAV8/luc and peptides for 2 h at 4° C., and then applied the mixture to HEK293 cells or Huh7 cells. After 48 h, the cell lysate was collected for luciferase analysis.
# [3] = tested on: C57BL/6 mice; test: Quantitation of luciferase expression in tissues; assay type: in vivo, mouse; conditions: 0.1 mM peptides + 5E+10 vg AAV8/luc
# Experimental: Quantitation of luciferase expression in tissues. Animals utilized for imaging studies were sacrificed after one-week post imaging work, and the tissues of the heart, liver, spleen, skeletal muscle and brain were collected, and were minced and homogenized in passive lysis buffer. Then the lysates were centrifuged at 10,000 rpm for 5 minutes to remove cellular debris. Supernatant was transferred to 96-well plates for luciferase activity analysis as described above. Total protein concentration in tissue lysates was measured using the Bradford assay (Bio-Rad Laboratories, Philadelphia, PA).
# [4] = tested on: human transferrin binding to AAV8 virions; test: AAV8 competitive binding assay; conditions: pre-incubation with AAV8, then human transferrin; pull down with transferrin antibody, qPCR
# Experimental: AAV8 competitive binding assay. For THR competitive binding analysis, 10 ul of Protein G resin (Thermo, USA) per system was incubated with 1 ug of human transferrin antibody or goat IgG antibody control at 4° C. overnight. […] After that, the mixture was added to the complex of protein G resin and transferrin antibody and incubated at 4° C. overnight. Finally, the complex was stringently washed three times with cold DPBS. DNA from the complex was extracted and applied for qPCR to determine AAV genome copy number per cell using luc specific primers.
# To investigate whether THR also binds to the same location of AAV8 virions as human serum proteins, we performed a competitive assay. […] The transferrin antibody was used to pull down transferrin bound AAV8 virions and AAV8 gene copy number was measured by qPCR.
# [5] = tested on: C57BL/6 mice; test: Measurement of AAV genome copy number in tissue; assay type: in vivo, mouse; conditions: 0.1 mM peptides + 5E+10 vg AAV8/luc; vs AAV8 only
# Experimental: Measurement of AAV genome copy number in tissue. Total gDNA from different minced tissues was isolated with the DNeasy blood & tissue kit (Qiagen, USA). Luciferase gene was measured by qPCR assay. Mouse-lamin gene served as an internal control.
# [6] = tested on: C57BL mice; test: Systemic administration of AAV6 and AAV8 pre-incubated with PB5-3, imaging; assay type: in vivo, mouse; conditions: pre-incubated with PB5-3, days 5 and 10
# Experimental: AAV/luc vectors from serotypes 6 or 8 at a dose of 5×10^10 or 1×10^10 particles, respectively, were incubated with PB5-3 for 2 hrs at 4° C. The complex was injected into C57BL mice via retro-orbital vein. At day 5 and 10 post AAV injection, mouse imaging was carried out. Representative imaging is shown from five mice.
# No effect of PB5-3 peptide on AAV brain transduction from other serotypes after systemic administration. To confirm the result in vitro that PB5-3 peptide could not efficiently bind to other AAV serotypes except for AAV9, we administered AAV6 and AAV8 vectors pre-incubated with PB5-3 in C57BL mice via retro-orbital injection. At days 5 and 10 post AAV application, mouse imaging was carried out.
# [7] = tested on: BBB hCMEC/D3 endothelial cells; test: In vitro endothelial cell permeability analysis of AAV9; assay type: cell-based, human; conditions: AAV9 pre-incubated with PB5-3 vs AAV9 with DPBS
# Experimental: Media in the basal chamber was collected at indicated time points and viral genome copy number was analyzed by qPCR. All treatments were performed in triplicate. *p<0.05 when compared to cells with the AAV9 only.
# PB5-3 peptide enhances AAV9 permeability in vitro. To study whether PB5-3 affects the ability of AAV9 to cross the endothelial cell layer, we performed an in vitro endothelial cell permeability analysis in a well-defined system using BBB hCMEC/D3 endothelial cells. Two groups were designed: an AAV9 vector incubated with DPBS (AAV9 cohort); and an AAV9 vector incubated with PB5-3 (AAV9-PB5-3 cohort). […] These observations indicate that the interaction of AAV9 with the PB5-3 peptide increased the ability of AAV9 to cross the BBB.
# [8] = tested on: AAV9 virions; test: Phage binding to AAV-coated plate
# Experimental: FIGS. 13A-13B show binding specificity of PB5-3 peptide to AAV9. After coating with 1×10^10 particles of AAV9, different phages at a dose of 1×10^11 were added to a 96 well plate and incubated. After washing, the number of bound phages was detected (FIG. 13A). A 96 well-plate was coated with 1×10^10 particles of AAV vectors/well from serotypes 6, 8 and 9 overnight. After washing, 1×10^11 of PB5-3 phages were added and incubated at room temperature for 2 hrs. After washing, the phage particles were detected (FIG. 13B).
# To study the AAV9 virion binding affinity of the peptides isolated from phage, first we compared the affinity of the different peptides to AAV9 virions. After incubation of an AAV9-coated plate with different phages and several washings, much more PB5-3 phages were detected to bind to AAV9 than PB5-5 and PB5-14 phages (FIG. 13A). […] We coated the plate with AAV virions from different serotypes. After incubation with PB5-3 phages, the number of phages on the AAV9-coated plate was much higher than that with AAV6 and AAV8 (FIG. 13B).
# [9] = tested on: C57BL mice; test: Systemic administration of AAV9/PB5-3 complex, imaging and genome copy number; assay type: in vivo, mouse
# Experimental: 1×10^10 particles of AAV9/luc vectors were incubated with PB5-3 for 2 hr at 4° C. The complex was injected into C57BL mice via the retro-orbital vein. At indicated time points, mouse imaging was performed. (FIG. 16A) representative imaging. (FIG. 16B) luciferase expression. (FIG. 16C) AAV genome copy number. The results represented the average and standard derivation from five mice.
# PB5-3 peptide enhances AAV9 transduction in the brain after systemic administration. To study the effect of PB5-3 peptide on AAV9 transduction in mice, we injected AAV9 vectors pre-incubated with PB5-3 peptide into C57BL mice via the retro-orbital vein. At days 1, 3, 7, and 14 post AAV administration, mouse imaging was taken. […] Transduction in the liver was similar regardless of AAV9 pre-incubation with PB5-3 peptide (FIG. 16B). Consistent to tissue transgene expression, AAV genome copy number in the brain but not in other tissues was higher in mice receiving the complex of AAV9 and PB5-3 (FIG. 16C).
# [10] = tested on: different cell types; conditions: different concentrations, 48 hrs
# Experimental: 1×10^4 cells were incubated with PB5-3 peptide at different concentrations for 48 hrs. Cell proliferation was analyzed with MTT assay (FIG. 14A). AAV9/luc vectors at a dose of 1×10^9 particles were incubated with PB5-3 peptide for 2 hrs at 4° C., then the mixture was applied to different cells and incubated for 2 days. Luciferase expression from cell lysate was detected (FIG. 14B). For comparison, PB5-3 was added to cells just before infection of AAV9 (FIG. 14C).
# [11] = tested on: Huh7 or hCMEC/D3 cells; test: Transduction of AAV serotypes 2, 6 and 8 with PB5-3 in vitro; assay type: cell-based; conditions: incubated with PB5-3; either cell line
# Experimental: 1×10^9 particles of AAV/luc vectors from serotype 2 (FIG. 15A), 6 (FIG. 15B), and 8 (FIG. 15C) were incubated with PB5-3 peptide for 2 hr at 4° C. The complex of AAV vector and peptide was applied to Huh7 or hCMEC/D3 cells. Two days later, the lysate from these cells was harvested for luciferase analysis.
# Analysis of enhancement of AAV transduction from other serotypes with PB5-3 peptide in vitro. To further investigate the specific effect of PB5-3 on AAV9, we tested the effect of PB5-3 on AAV transduction from other serotypes. AAV vectors from serotypes 2, 6, and 8 were incubated with PB5-3 and then the mixture was applied to Huh7 or hCMEC/D3 cells. The transduction was detected two days later after AAV infection.
# [12] = tested on: Huh7, Hela, C2C12 and hCMEC/D3; test: AAV9/luc transduction in cell lines with PB5-3; assay type: cell-based
# Experimental: Cell proliferation was analyzed with MTT assay (FIG. 14A). […] Luciferase expression from cell lysate was detected (FIG. 14B).
# PB5-3 peptide specifically enhances AAV9 transduction in cell lines. Next, we examined the effect of PB5-3 on AAV9 transduction in vitro. […] Consistent with previous studies, the direct interaction of peptide and AAV virions is required to enhance AAV9 transduction.
Substance,transgene expression in the liver (imaging) [1],AAV8 transduction (luciferase) [2],AAV8 brain transduction (luc expression and genome number) [3],AAV genome copy number in the brain [5],also measured
GRKKRRQRRRPPQ [HIV-1 TAT (48-60)],higher,significantly enhanced AAV8 transduction,no effect on brain transduction,,AAV8 liver transduction [3]: increased AAV8 liver transduction
"FILMVWAPFI [PEPXT-1, control peptide, neutral polarity]",,,,,inhibition of transferrin binding to AAV8 [4]: no effect
YQQILTSMPSRNVIQISNDLENLRDLLHVL [Leptin 30 (61-90)],higher,significantly enhanced AAV8 transduction,increased AAV8 transduction in the brain,much higher,
(LRKLRKRLL)2 (LRKLRKRLLLRKLRKRLL) [ApoE (159-167)2],higher,,increased AAV8 transduction in the brain,much higher,
TFFYGGSRGKRNNFKTEEY-OH [Angiopep-2],higher,,increased AAV8 transduction in the brain,much higher,
KKALLALALHHLAHLALALKKAC [LAH4],higher,significantly enhanced AAV8 transduction,no effect on brain transduction,,AAV8 liver transduction [3]: increased AAV8 liver transduction
QFAALPVRAHYG-NH2 [PB5-3],,,,,"brain transduction from AAV6 and AAV8 [6]: No brain transduction enhancement; also recorded: no effect; endothelial cell permeability of AAV9 [7]: significant increase in the endothelial cell permeability; also recorded: increases AAV9 permeability; number of phages on AAV9-coated plate vs other serotypes ([8]; vs AAV6 and AAV8 coated plates): much higher; phages bound to AAV9-coated plate ([8]; vs PB5-5 and PB5-14 phages): much more; AAV9 transduction in brain (imaging) ([9]; 1×10^10 particles AAV9/luc pre-incubated with PB5-3, retro-orbital vein): specifically enhanced AAV9 ability to cross the BBB and increase brain transduction; also recorded: high transduction in brain tissues; AAV genome copy number in the brain ([9]; complex of AAV9 and PB5-3, not in other tissues): higher; AAV9 transduction in the liver ([9]; with vs without PB5-3 pre-incubation): similar; toxicity (MTT assay) [10]: no toxicities; transduction of AAV2, 6 or 8 [11]: No enhanced transduction; also recorded: no enhancement; AAV9 transduction, PB5-3 incubated with AAV9 virions ([12]; 2 hrs at 4° C. pre-incubation, Huh7, Hela, C2C12 and hCMEC/D3): enhanced transduction; also recorded: specifically enhances AAV9 transduction in vitro; AAV9 transduction, PB5-3 without incubation ([12]; PB5-3 added to cells just before infection of AAV9): failed to increase AAV9 transduction"
